*1 amine or outer side, *2 acyl side, *3 side chain or, on linkers, in order; H or OH if unused. Where a SMILES comes first, the peptide text is derived from it. [ ]: non-standard residue; d: D form. The star is where a group is joined. d(γGlu) = O=C(O)[C@@H](CCC(=O)[*:2])N[*:1]; Ala(3-yl) = N[C@@H](C*)C(=O)O; dLac = C[C@@H](O)C(=O)O
Legend:
human NOD1 = molecular target: T1, human NOD1 (Homo sapiens, UniProt Q9Y239); assay: NOD1 functional agonist assay, 293hNOD1-SEAP reporter cells; format: cell-based; settings: 293hNOD1 cells, OD above 3*O.D of negative control
T1 construct: expressed in transfected cells; host or cells: HEK293
T1 sequence (Q9Y239 1-953): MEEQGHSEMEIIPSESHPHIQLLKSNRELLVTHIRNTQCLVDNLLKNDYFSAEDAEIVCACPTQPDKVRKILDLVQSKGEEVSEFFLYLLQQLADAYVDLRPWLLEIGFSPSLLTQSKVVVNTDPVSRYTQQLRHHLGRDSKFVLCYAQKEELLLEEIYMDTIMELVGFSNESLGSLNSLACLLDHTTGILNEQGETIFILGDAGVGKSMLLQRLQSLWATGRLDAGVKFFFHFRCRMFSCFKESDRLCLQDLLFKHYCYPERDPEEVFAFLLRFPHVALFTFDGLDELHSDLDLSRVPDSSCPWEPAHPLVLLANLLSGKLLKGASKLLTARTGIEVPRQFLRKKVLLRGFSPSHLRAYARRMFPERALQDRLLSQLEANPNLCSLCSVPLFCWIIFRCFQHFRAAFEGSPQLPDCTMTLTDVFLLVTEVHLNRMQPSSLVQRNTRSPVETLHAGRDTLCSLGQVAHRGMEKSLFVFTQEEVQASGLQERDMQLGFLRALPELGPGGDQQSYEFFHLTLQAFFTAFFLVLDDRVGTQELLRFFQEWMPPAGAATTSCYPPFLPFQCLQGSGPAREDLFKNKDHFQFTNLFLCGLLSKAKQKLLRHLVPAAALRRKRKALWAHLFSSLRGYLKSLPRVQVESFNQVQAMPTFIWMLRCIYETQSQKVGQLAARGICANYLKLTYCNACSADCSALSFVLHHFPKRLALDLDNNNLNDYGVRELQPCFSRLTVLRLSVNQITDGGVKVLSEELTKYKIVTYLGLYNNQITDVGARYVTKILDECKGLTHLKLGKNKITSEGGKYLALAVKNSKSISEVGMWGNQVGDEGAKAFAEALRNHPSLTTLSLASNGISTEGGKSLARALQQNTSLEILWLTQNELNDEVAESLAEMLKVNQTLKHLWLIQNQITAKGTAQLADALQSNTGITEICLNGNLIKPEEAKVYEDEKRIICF
Excerpt: (§1) HEK293 cells were stably transfected with plasmid for the overexpression of the NOD1 genes and a reporter plasmid expressing a secreted embryonic alkaline phosphatase (SEAP) gene under the control of a promoter inducible by the transcription factors NF-κB and AP-1. These cells are referred herein as 293hNOD1-SEAP (for cells overexpressing the human NOD1 gene) and 293mNOD1-SEAP (for cells overexpressing the murine NOD1 gene). Upon NOD1 stimulation, these cells induce the activation of NF-κB and AP-1 and subsequently the secretion of SEAP. The reporter protein is easily detectable and measurable when using QUANTI-Blue™ (InvivoGen, San Diego, Calif.), a medium that turns purple/blue in the presence of SEAP.
(§2) The biological activity of the compounds of the invention tested using 293hNOD1 and 293mNOD1 cells. SEAP expression was measured using the commercially available SEAP detection kit (HEK-Blue™ Detection, InvivoGen). The SEAP activity in cells was quantified using the microplate reader (FLUOStar OPTIMA, BMG laboratories), the absorbance values were read using filter with excitation at 620 nm and emission at 655 nm. The results provided in Table 2 were expressed as the concentration were a significant mean optical density (OD) can be observed (above 3*O.D of negative control). As a positive control, the NOD1 pathway was stimulated with commercially available iE-DAP (InvivoGen) and C12-iE-DAP (an acylated derivative of DAP; InvivoGen). As a negative control endotoxin-free water was used. Additionally, 293 cells expressing the SEAP gene but not the NOD1 gene were used as a control.

murine NOD1 = molecular target: T2, murine NOD1 (Mus musculus, UniProt Q8BHB0); assay: NOD1 functional agonist assay, 293mNOD1-SEAP reporter cells; format: cell-based; settings: 293mNOD1 cells, OD above 3*O.D of negative control
T2 construct: expressed in transfected cells; host or cells: HEK293
T2 sequence (Q8BHB0 1-953): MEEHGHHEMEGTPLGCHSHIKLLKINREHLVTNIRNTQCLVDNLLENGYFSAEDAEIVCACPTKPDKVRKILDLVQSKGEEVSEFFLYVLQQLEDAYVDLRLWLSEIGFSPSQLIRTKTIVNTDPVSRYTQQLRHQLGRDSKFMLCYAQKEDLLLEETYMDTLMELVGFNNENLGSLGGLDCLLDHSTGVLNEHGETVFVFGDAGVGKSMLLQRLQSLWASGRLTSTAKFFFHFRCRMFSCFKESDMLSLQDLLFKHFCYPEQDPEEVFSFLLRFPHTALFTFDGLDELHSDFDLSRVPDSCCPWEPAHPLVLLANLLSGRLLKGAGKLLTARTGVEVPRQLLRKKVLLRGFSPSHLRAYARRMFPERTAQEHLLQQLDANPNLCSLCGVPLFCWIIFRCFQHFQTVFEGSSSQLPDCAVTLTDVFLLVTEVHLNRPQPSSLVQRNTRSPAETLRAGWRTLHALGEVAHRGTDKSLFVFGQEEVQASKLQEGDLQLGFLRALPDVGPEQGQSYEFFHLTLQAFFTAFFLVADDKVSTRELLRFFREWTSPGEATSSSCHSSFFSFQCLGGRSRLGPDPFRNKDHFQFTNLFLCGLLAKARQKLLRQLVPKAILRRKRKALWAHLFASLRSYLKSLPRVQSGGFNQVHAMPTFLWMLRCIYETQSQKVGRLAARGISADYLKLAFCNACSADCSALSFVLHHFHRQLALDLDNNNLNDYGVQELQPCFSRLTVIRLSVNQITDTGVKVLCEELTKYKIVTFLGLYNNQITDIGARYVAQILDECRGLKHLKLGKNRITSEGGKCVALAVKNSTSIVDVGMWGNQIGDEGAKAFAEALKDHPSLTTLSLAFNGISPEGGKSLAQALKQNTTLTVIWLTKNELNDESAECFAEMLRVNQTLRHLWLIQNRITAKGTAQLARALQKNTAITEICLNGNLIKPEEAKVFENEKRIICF
Excerpt: as §1, §2

Compound	hNod1: concentration where a significant mean optical density (OD) can be observed (human NOD1) [µg/mL]	mNod1: concentration where a significant mean optical density (OD) can be observed (murine NOD1) [µg/mL]
C[C@H](N)C(=O)N[C@H](CCC(=O)N[C@H](CSC[C@H](N)C(=O)O)C(=O)NCC(=O)O)C(=O)O [Example 26, N^2-(L-alanyl)-N^5-((S)-3-(((R)-2-amino-2-carboxyethyl)thio)-1-((carboxymethyl)amino)-1-oxopropan-2-yl)-D-glutamine]	10	0.1
CCCCCCCCCCCC(=O)N[C@H](CCC(=O)N[C@H](CSC[C@H](N)C(=O)O)C(=O)O)C(=O)O [Example 3, N^5-((S)-2-(((R)-2-amino-2-carboxyethyl)thio)-1-carboxyethyl)-N^2-dodecanoyl-D-glutamine]	0.01	0.1
CCCCCCCCCCCCCC(=O)N[C@H](CCC(=O)N[C@H](CSC[C@H](N)C(=O)O)C(=O)N[C@H](C)C(=O)O)C(=O)O [Example 17, N^5-((S)-3-(((R)-2-amino-2-carboxyethyl)thio)-1-(((R)-1-carboxyethyl)amino)-1-oxopropan-2-yl)-N^2-tetradecanoyl-D-glutamine]	0.01	0.001
CCCCCCCCCCCCCC(=O)N[C@@H](CC(C)C)C(=O)N[C@H](CCC(=O)N[C@H](CSC[C@H](N)C(=O)O)C(=O)O)C(=O)O [Example 10, N^5-((S)-2-(((R)-2-amino-2-carboxyethyl)thio)-1-carboxyethyl)-N^2-(tetradecanoyl-L-leucyl)-D-glutamine]	0.001	0.1
CC(C)[C@H](N)C(=O)N[C@H](CCC(=O)N[C@H](CSC[C@H](N)C(=O)O)C(=O)O)C(=O)O [Example 8, N^2-(L-valyl)-N^5-((S)-2-(((R)-2-amino-2-carboxyethyl)thio)-1-carboxyethyl)-D-glutamine]	0.1	1
CCCCCCCCCCCC(=O)N[C@H](CCC(=O)N[C@H](CSC[C@H](N)C(=O)O)C(=O)NCC(=O)O)C(=O)O [Example 24, N^5-((S)-3-(((R)-2-amino-2-carboxyethyl)thio)-1-((carboxymethyl)amino)-1-oxopropan-2-yl)-N^2-dodecanoyl-D-glutamine]	0.01	0.01
CCCCCCCCCCCC(=O)N[C@@H](C)C(=O)N[C@H](CCC(=O)N[C@H](CSC[C@H](N)C(=O)O)C(=O)NCC(=O)O)C(=O)O [Example 28, N^5-((S)-3-(((R)-2-amino-2-carboxyethyl)thio)-1-((carboxymethyl)amino)-1-oxopropan-2-yl)-N^2-(dodecanoyl-L-alanyl)-D-glutamine]	0.001	0.001
CCCCCCC(=O)N[C@H](CCC(=O)N[C@H](CSC[C@H](N)C(=O)O)C(=O)NCC(=O)O)C(=O)O [Example 23, N^5-((S)-3-(((R)-2-amino-2-carboxyethyl)thio)-1-((carboxymethyl)amino)-1-oxopropan-2-yl)-N^2-heptanoyl-D-glutamine]	1	1
CCCCCCCCCCCCCC(=O)N[C@H](CCC(=O)N[C@@H](COC[C@@H](N)C(=O)O)C(=O)O)C(=O)O [Example 35, N^5-((S)-2-((R)-2-amino-2-carboxyethoxy)-1-carboxyethyl)-N^2-tetradecanoyl-D-glutamine]	0.01	0.01
CCCCCCC(=O)N[C@@H](C)C(=O)N[C@H](CCC(=O)N[C@H](CSC[C@H](N)C(=O)O)C(=O)N[C@H](C)C(=O)O)C(=O)O [Example 19, N^5-((S)-3-(((R)-2-amino-2-carboxyethyl)thio)-1-(((R)-1-carboxyethyl)amino)-1-oxopropan-2-yl)-N^2-(heptanoyl-L-alanyl)-D-glutamine]	0.1	0.1
C[C@H](N)C(=O)N[C@H](CCC(=O)N[C@@H](COC[C@@H](N)C(=O)O)C(=O)O)C(=O)O [Example 36, N^2-(L-alanyl)-N^5-((S)-2-((R)-2-amino-2-carboxyethoxy)-1-carboxyethyl)-D-glutamine]	100	100
C[C@H](NC(=O)[C@@H](C)O)C(=O)N[C@H](CCC(=O)N[C@H](CSC[C@H](N)C(=O)O)C(=O)NCC(=O)O)C(=O)O [Example 30, N^5-((S)-3-(((R)-2-amino-2-carboxyethyl)thio)-1-((carboxymethyl)amino)-1-oxopropan-2-yl)-N^2-(((R)-2-hydroxypropanoyl)-L-alanyl)-D-glutamine] (H-[dLac]A[d(γGlu)][dC](Ala(3-yl))G-OH)	10	10
CCCCCCCCCCCC(=O)N[C@@H](C)C(=O)N[C@H](CCC(=O)N[C@H](CSC[C@H](N)C(=O)O)C(=O)N[C@H](C)C(=O)O)C(=O)O [Example 20, N^5-((S)-3-(((R)-2-amino-2-carboxyethyl)thio)-1-(((R)-1-carboxyethyl)amino)-1-oxopropan-2-yl)-N^2-(dodecanoyl-L-alanyl)-D-glutamine]	0.01	0.01
CCCCCCCCCCCCCC(=O)N[C@H](CCC(=O)N[C@H](CSC[C@H](N)C(=O)O)C(=O)O)C(=O)O [Example 4, N^5-((S)-2-(((R)-2-amino-2-carboxyethyl)thio)-1-carboxyethyl)-N^2-tetradecanoyl-D-glutamine]	0.0001	0.001
